Assay results as given in patent US20120022058A1, “4,5-DIHYDRO-1H-PYRAZOLE COMPOUNDS AND THEIR PHARMACEUTICAL USES” (Pfizer Inc., priority 2009, published 2012).

These compounds were tested against T1, MR (Homo sapiens, UniProt P08235) (assay: Cell-Based Reporter Assay (Gal4 DBD-MR LBD luciferase reporter, antagonist mode)). Settings: antagonist mode vs aldosterone at EC80; transfected human liver cells (Huh7); luciferase readout; Examples 3, 6, 12 and 13 tested in analogous format with minor variations.
T1 construct: expressed in transfected cells; host or cells: Huh7 human liver cells, transient transfection
T1 sequence (P08235 726-964 limits assumed): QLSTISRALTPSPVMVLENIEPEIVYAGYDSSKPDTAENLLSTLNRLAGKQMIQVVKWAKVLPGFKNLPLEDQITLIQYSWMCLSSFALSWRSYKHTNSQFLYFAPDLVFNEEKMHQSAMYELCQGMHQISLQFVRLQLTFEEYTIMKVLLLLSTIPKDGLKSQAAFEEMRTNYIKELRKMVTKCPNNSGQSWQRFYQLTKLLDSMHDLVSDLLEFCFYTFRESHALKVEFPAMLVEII
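Note: cells co-transfected with a Gal4 response element luciferase plasmid, compound exposure overnight before lysis and luminescence counting, IC50 reflects reduced aldosterone-stimulated reporter signal.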

Row | SMILES | IC50
1 | COC(=O)c1ccc(C2=NN(c3ccc(C#N)c(C)c3)C(C3CCCC3)C2)nc1OC (centres unmarked) [Example 1, Methyl 6-(1-(4-cyano-3-methylphenyl)-5-cyclopentyl-4,5-dihydro-1H-pyrazol-3-yl)-2-methoxynicotinate] | 34.6 nM
2 | COC(=O)c1ccc(C2=NN(c3ccc(C#N)c(C)c3)[C@@H](C3CCCC3)C2)nc1OC [Example 2] | 9.2 nM
3 | COc1cc(N2N=C(c3ccc(C(=O)O)c(OC)n3)CC2C2CCCC2)ccc1C#N (centres unmarked) [Example 6, 6-[1-(4-cyano-3-methoxy-phenyl)-5-cyclopentyl-4,5-dihydro-1H-pyrazol-3-yl]-2-methoxy-nicotinic acid] | 9 nM
4 | COc1cc(C2=NN(c3ccc(C#N)c(Cl)c3)[C@@H](C3CCCC3)C2)ncc1C(=O)O [Example 13, (R)-6-(1-(3-chloro-4-cyanophenyl)-5-cyclopentyl-4,5-dihydro-1H-pyrazol-3-yl)-4-methoxynicotinic acid] | 2000 nM
5 | COC(=O)c1ccc(C2=NN(c3ccc(C#N)c(C)n3)[C@@H](C3CCCC3)C2)cc1 [Example 14, (R)-methyl 4-(1-(5-cyano-6-methylpyridin-2-yl)-5-cyclopentyl-4,5-dihydro-1H-pyrazol-3-yl)benzoate] | > 2260 nM
6 | Cc1nc(N2N=C(c3ccc(C(N)=O)cc3)C[C@@H]2C2CCCC2)ccc1C#N [Example 16, (R)-4-(1-(5-cyano-6-methylpyridin-2-yl)-5-cyclopentyl-4,5-dihydro-1H-pyrazol-3-yl)benzamide] | 13.4 nM
7 | Cc1nc(N2N=C(c3ccc(S(C)(=O)=O)cc3)C[C@@H]2C2CCCC2)ccc1C#N [Example 17, (R)-6-(5-cyclopentyl-3-(4-(methylsulfonyl)phenyl)-4,5-dihydro-1H-pyrazol-1-yl)-2-methylnicotinonitrile] | 8.4 nM
8 | Cc1nc(N2N=C(c3ccc4ncn(C)c(=O)c4c3)C[C@@H]2C2CCCC2)ccc1C#N [Example 18, (R)-6-(5-cyclopentyl-3-(3-methyl-4-oxo-3,4-dihydroquinazolin-6-yl)-4,5-dihydro-1H-pyrazol-1-yl)-2-methylnicotinonitrile] | 1.9 nM
9 | Cc1nc(N2N=C(c3ccc4c(c3)NC(=O)CO4)C[C@@H]2C2CCCC2)ccc1C#N [Example 19, (R)-6-(5-cyclopentyl-3-(3-oxo-3,4-dihydro-2H-benzo[b][1,4]oxazin-6-yl)-4,5-dihydro-1H-pyrazol-1-yl)-2-methylnicotinonitrile] | 10.8 nM
10 | Cc1nc(N2N=C(c3ccc(S(N)(=O)=O)cc3)C[C@@H]2C2CCCC2)ccc1C#N [Example 20, (R)-4-(1-(5-cyano-6-methylpyridin-2-yl)-5-cyclopentyl-4,5-dihydro-1H-pyrazol-3-yl)benzenesulfonamide] | 19.7 nM
11 | Cc1nc(N2N=C(c3cccc(S(C)(=O)=O)c3)C[C@@H]2C2CCCC2)ccc1C#N [Example 21, (R)-6-(5-cyclopentyl-3-(3-(methylsulfonyl)phenyl)-4,5-dihydro-1H-pyrazol-1-yl)-2-methylnicotinonitrile] | 105 nM
12 | CCS(=O)(=O)c1ccc(C2=NN(c3ccc(C#N)c(C)n3)[C@@H](C3CCCC3)C2)cc1 [Example 22, (R)-6-(5-cyclopentyl-3-(4-(ethylsulfonyl)phenyl)-4,5-dihydro-1H-pyrazol-1-yl)-2-methylnicotinonitrile] | 13.5 nM
13 | Cc1cc(C2=NN(c3ccc(C#N)c(C)n3)[C@@H](C3CCCC3)C2)ccc1C#N [Example 23, (R)-6-(3-(4-cyano-3-methylphenyl)-5-cyclopentyl-4,5-dihydro-1H-pyrazol-1-yl)-2-methylnicotinonitrile] | 113 nM
14 | Cc1cc(C2=NN(c3ccc(C#N)c(C)n3)[C@@H](C3CCCC3)C2)ccc1C(N)=O [Example 24, (R)-4-(1-(5-cyano-6-methylpyridin-2-yl)-5-cyclopentyl-4,5-dihydro-1H-pyrazol-3-yl)-2-methylbenzamide] | 25 nM
15 | Cc1nc(N2N=C(c3ccc(NS(C)(=O)=O)cc3)C[C@@H]2C2CCCC2)ccc1C#N [Example 25, (R)—N-(4-(1-(5-cyano-6-methylpyridin-2-yl)-5-cyclopentyl-4,5-dihydro-1H-pyrazol-3-yl)phenyl)methanesulfonamide] | 48.4 nM
16 | COc1cc(C2=NN(c3ccc(C#N)c(C)n3)[C@@H](C3CCCC3)C2)ccc1C#N [Example 26, (R)-6-(3-(4-cyano-3-methoxyphenyl)-5-cyclopentyl-4,5-dihydro-1H-pyrazol-1-yl)-2-methylnicotinonitrile] | 85.3 nM
17 | COc1cc(C2=NN(c3ccc(C#N)c(C)n3)[C@@H](C3CCCC3)C2)ccc1C(N)=O [Example 27] | 5.2 nM
18 | COc1cccc(C2=NN(c3ccc(C#N)c(C)n3)[C@@H](C3CCCC3)C2)n1 [Example 28, (R)-6-(5-cyclopentyl-3-(6-methoxypyridin-2-yl)-4,5-dihydro-1H-pyrazol-1-yl)-2-methylnicotinonitrile] | 97.6 nM

Row | SMILES | IC50
19 | Cc1nc(N2N=C(c3cccc(C(N)=O)c3)C[C@@H]2C2CCCC2)ccc1C#N [Example 29, (R)-3-(1-(5-cyano-6-methylpyridin-2-yl)-5-cyclopentyl-4,5-dihydro-1H-pyrazol-3-yl)benzamide] | 30.6 nM
20 | Cc1nc(N2N=C(c3ccc4c(c3)CNC4=O)C[C@@H]2C2CCCC2)ccc1C#N [Example 30, (R)-6-(5-cyclopentyl-3-(1-oxoisoindolin-5-yl)-4,5-dihydro-1H-pyrazol-1-yl)-2-methylnicotinonitrile] | 9.7 nM
21 | Cc1nc(N2N=C(c3ccc4c(c3)C(=O)NC4)C[C@@H]2C2CCCC2)ccc1C#N [Example 31, (R)-6-(5-cyclopentyl-3-(3-oxoisoindolin-5-yl)-4,5-dihydro-1H-pyrazol-1-yl)-2-methylnicotinonitrile] | 11.2 nM
22 | COC(=O)c1cc(C2=NN(c3ccc(C#N)c(C)n3)[C@@H](C3CCCC3)C2)ccc1S(C)(=O)=O [Example 35, (R)-methyl 5-(1-(5-cyano-6-methylpyridin-2-yl)-5-cyclopentyl-4,5-dihydro-1H-pyrazol-3-yl)-2-(methylsulfonyl)benzoate] | 8.9 nM
23 | COc1ccc(C2=NN(c3ccc(C#N)c(C)n3)[C@@H](C3CCCC3)C2)cc1C(=O)O [Example 36, (R)-5-(1-(5-cyano-6-methylpyridin-2-yl)-5-cyclopentyl-4,5-dihydro-1H-pyrazol-3-yl)-2-methoxybenzoic acid] | 225 nM
24 | COC(=O)c1ccc(C2=NN(c3ccc(C#N)c(C)n3)[C@@H](C3CCCC3)C2)c(OC)c1 [Example 38, (R)-methyl 4-(1-(5-cyano-6-methylpyridin-2-yl)-5-cyclopentyl-4,5-dihydro-1H-pyrazol-3-yl)-3-methoxybenzoate] | 82.2 nM
25 | COc1cc(C(=O)O)ccc1C1=NN(c2ccc(C#N)c(C)n2)[C@@H](C2CCCC2)C1 [Example 39, (R)-methyl 4-(1-(5-cyano-6-methylpyridin-2-yl)-5-cyclopentyl-4,5-dihydro-1H-pyrazol-3-yl)-3-methoxybenzoic acid] | 7 nM
26 | CCOc1cc(C2=NN(c3ccc(C#N)c(C)n3)[C@@H](C3CCCC3)C2)ccc1C(=O)O [Example 41, (R)-4-(1-(5-cyano-6-methylpyridin-2-yl)-5-cyclopentyl-4,5-dihydro-1H-pyrazol-3-yl)-2-ethoxybenzoic acid] | 9.1 nM
27 | CCOc1cc(C2=NN(c3ccc(C#N)c(C)n3)[C@@H](C3CCCC3)C2)ccc1C(N)=O [Example 42, (R)-4-(1-(5-cyano-6-methylpyridin-2-yl)-5-cyclopentyl-4,5-dihydro-1H-pyrazol-3-yl)-2-ethoxybenzamide] | 5 nM
28 | COc1cccc(C2=NN(c3ccc(C#N)c(C)n3)[C@@H](C3CCCC3)C2)c1 [Example 43, (R)-6-(5-cyclopentyl-3-(3-methoxyphenyl)-4,5-dihydro-1H-pyrazol-1-yl)-2-methylnicotinonitrile] | 130 nM
29 | Cc1nc(N2N=C(c3ccc4c(c3)CCC(=O)N4)C[C@@H]2C2CCCC2)ccc1C#N [Example 45, (R)-6-(5-cyclopentyl-3-(2-oxo-1,2,3,4-tetrahydroquinolin-6-yl)-4,5-dihydro-1H-pyrazol-1-yl)-2-methylnicotinonitrile] | 20.6 nM
30 | Cc1nc(N2N=C(c3ccc4c(c3)OCC(=O)N4)C[C@@H]2C2CCCC2)ccc1C#N [Example 46, (R)-6-(5-cyclopentyl-3-(3-oxo-3,4-dihydro-2H-benzo[b][1,4]oxazin-7-yl)-4,5-dihydro-1H-pyrazol-1-yl)-2-methylnicotinonitrile] | 42 nM
31 | Cc1nc(N2N=C(c3ccc4c(c3)CNC(=O)N4)C[C@@H]2C2CCCC2)ccc1C#N [Example 47, (R)-6-(5-cyclopentyl-3-(2-oxo-1,2,3,4-tetrahydroquinazolin-6-yl)-4,5-dihydro-1H-pyrazol-1-yl)-2-methylnicotinonitrile] | 12 nM
32 | CCOc1nc(C2=NN(c3ccc(C#N)c(C)n3)[C@@H](C3CCCC3)C2)ccc1C(=O)O [Example 51, (R)-6-(1-(5-cyano-6-methylpyridin-2-yl)-5-cyclopentyl-4,5-dihydro-1H-pyrazol-3-yl)-2-ethoxynicotinic acid] | 8.2 nM
33 | COc1cc(C2=NN(c3ccc(C#N)c(C)n3)[C@@H](C3CCCC3)C2)ccc1O [Example 52, (R)-6-(5-cyclopentyl-3-(4-hydroxy-3-methoxyphenyl)-4,5-dihydro-1H-pyrazol-1-yl)-2-methylnicotinonitrile] | 62.3 nM
34 | COc1cc(C2=NN(c3ccc(C#N)c(C)n3)[C@@H](C3CCCC3)C2)ccc1CC(=O)O [Example 54, (R)-2-(4-(1-(5-cyano-6-methylpyridin-2-yl)-5-cyclopentyl-4,5-dihydro-1H-pyrazol-3-yl)-2-methoxyphenyl)acetic acid] | 95.7 nM
35 | CCOc1nc(C2=NN(c3ccc(C#N)c(C)c3)[C@@H](C3CCCC3)C2)ccc1C(N)=O [Example 55, (R)-6-(1-(4-cyano-3-methylphenyl)-5-cyclopentyl-4,5-dihydro-1H-pyrazol-3-yl)-2-ethoxynicotinamide] | 3.9 nM
